Converted amounts (≈) assume the structure as drawn. “And” between values parts separate entries of the source, which are not always exact repeats. Equal values may be shown once.
Tests used:
Assay in all cases: ≥ marks a high value that may be exact or a test limit, other limits are often not marked, values filed in µg/mL are converted to µM
[1] = test system: Staphylococcus aureus NCTC 8325
[2] = test system: Pseudomonas aeruginosa ATCC 27853
[3] = test system: Escherichia coli ATCC 25922
[4] = test system: Klebsiella pneumoniae KK3 9904
[5] = test system: Enterobacter cloacae NHTCC 53001
[6] = test system: Candida albicans ATCC 90028
[7] = test system: Stenotrophomonas maltophilia CUN 3998-00
[8] = test system: Staphylococcus aureus CUN 3792-99
[9] = test system: Staphylococcus aureus ATCC 43300
[10] = test system: Staphylococcus aureus ATCC 25923
Vibrio cholerae CUN 09 = test system: Vibrio cholerae CUN 09
[11] = test system: Acinetobacter baumannii ATCC 19606
Escherichia coli ESBL = test system: Escherichia coli ESBL
[12] = test system: Bordetella bronchiseptica CUN 11844-99
[13] = test system: Pseudomonas aeruginosa CUN 4158-02
Klebsiella pneumoniae = test system: Klebsiella pneumoniae
Pseudomonas putida = test system: Pseudomonas putida
[14] = test system: Enterobacter cloacae AB2010162
[15] = test system: Salmonella enterica AB2010185
[16] = test system: Klebsiella oxytoca AB2010143
[17] = test system: Micrococcus luteus AB2010179
[18] = test system: Staphylococcus aureus AB94004
[19] = test system: Escherichia coli DH5alpha
[20] = test system: Candida tropicalis AY91009
[21] = test system: Bacillus magaterium AB90008
[22] = test system: Staphylococcus aureus 16472
Enterococcus sp. S13 = test system: Enterococcus sp. S13
Enterococcus faecalis = test system: Enterococcus faecalis
[23] = test system: Staphylococcus aureus ATCC 12600
Enterococcus faecium = test system: Enterococcus faecium
Staphylococcus xylosus = test system: Staphylococcus xylosus
[24] = test system: Staphylococcus aureus 1840
[25] = test system: Staphylococcus aureus FDA 209P
[26] = test system: Staphylococcus aureus CCRC 12652
Citrobacter koseri = test system: Citrobacter koseri
Shigella sonnei EW-33 = test system: Shigella sonnei EW-33
[27] = test system: Bifidobacterium adolescentis
Acinetobacter baumannii = test system: Acinetobacter baumannii
Botrytis cinerea = test system: Botrytis cinerea
[28] = test system: Lactobacillus delbrueckii subsp. bulgaricus
[29] = test system: Escherichia coli NIHJ JC-2
[30] = test system: Enterococcus faecium EFMY-28
Staphylococcus aureus = test system: Staphylococcus aureus
[31] = test system: Vibrio parahaemolyticus CCRC 10806
[32] = test system: Enterococcus faecalis LS-101
[33] = test system: Salmonella typhimurium CCRC 12947
Salmonella enterica = test system: Salmonella enterica
[34] = test system: Candida albicans ATCC 10231
[35] = test system: Klebsiella pneumoniae CCRC 10694
[36] = test system: Bacillus subtilis PCI 219
Escherichia coli BL21 = test system: Escherichia coli BL21
Escherichia coli JM109 = test system: Escherichia coli JM109
[37] = test system: Staphylococcus aureus CCRC 15211
[38] = test system: Escherichia coli ATCC 11775
[39] = test system: Staphylococcus epidermidis ATCC 12228
Shigella flexneri EW-10 = test system: Shigella flexneri EW-10

Which results are given for `CC[C@H](C)[C@@H]1NC(=O)[C@H](CCCCN)NC(=O)[C@@H](NC(=O)[C@H](CCCCN)NC(=O)[C@H](C)NC(=O)[C@H](CCC(N)=O)NC(=O)[C@H](CC(=O)O)NC(=O)[C@H](CC(C)C)NC(=O)[C@H](CC(C)C)NC(=O)[C@H](CO)NC(=O)CNC(=O)CNC(=O)[C@@H](NC(=O)[C@H](CC(N)=O)NC(=O)[C@H](CCCCN)NC(=O)[C@H](Cc2ccccc2)NC(=O)[C@@H](NC(=O)[C@H](Cc2cnc[nH]2)NC(=O)[C@H](CCCCN)NC(=O)CNC(=O)[C@@H](NC(=O)[C@@H](NC(=O)[C@H](CCCCN)NC(=O)[C@H](CC(C)C)NC(=O)[C@@H](NC(=O)CNC(=O)[C@H](CCCCN)NC(=O)[C@H](CC(C)C)NC(=O)[C@@H](NC(=O)[C@H](CO)NC(=O)[C@H](CC(C)C)NC(=O)[C@H](CC(C)C)NC(=O)CN)C(C)C)C(C)C)[C@@H](C)O)[C@@H](C)O)[C@@H](C)CC)C(C)C)CSSC[C@@H](C(=O)O)NC(=O)[C@H](CCC(N)=O)NC(=O)CNC(=O)[C@H](CO)NC1=O` [GLLSVLKGVLKTTGKHIFKNVGGSLLDQAKCKISGQC]?
MIC [1]: 25 µM (≈ 96 µg/mL); MIC [2]: 3 µM (≈ 11.5 µg/mL); MIC [3]: 3 µM (≈ 11.5 µg/mL); MIC [4]: 6 µM (≈ 23 µg/mL); MIC [5]: 3 µM (≈ 11.5 µg/mL); MIC [6]: ≥ 100 µM

What does the source list for `N=C(N)NCCC[C@H](NC(=O)CNC(=O)[C@H](CCCCN)NC(=O)[C@H](Cc1ccccc1)NC(=O)[C@H](CCCCN)NC(=O)[C@H](Cc1c[nH]c2ccccc12)NC(=O)[C@H](CCCNC(=N)N)NC(=O)[C@H](Cc1ccccc1)NC(=O)[C@H](CCCCN)NC(=O)[C@H](CCCCN)NC(=O)[C@H](Cc1ccc(O)cc1)NC(=O)[C@H](CCCNC(=N)N)NC(=O)[C@H](CCCNC(=N)N)NC(=O)CN)C(=O)N[C@@H](Cc1c[nH]c2ccccc12)C(=O)N[C@@H](Cc1ccccc1)C(=O)N[C@@H](Cc1c[nH]c2ccccc12)C(=O)N[C@@H](Cc1ccccc1)C(=O)NCC(=O)O` [GRRYKKFRWKFKGRWFWFG]?
MIC [2]: 6.07 µM (≈ 16 µg/mL); MIC [3]: 6.07 µM (≈ 16 µg/mL); MIC [7]: 12.1 µM (≈ 32 µg/mL); MIC [8]: 3.03 µM (≈ 8 µg/mL); MIC [9]: 3.03 µM (≈ 8 µg/mL); MIC [10]: 3.03 µM (≈ 8 µg/mL); MIC (Vibrio cholerae CUN 09): 6.07 µM (≈ 16 µg/mL); MIC [11]: 6.07 µM (≈ 16 µg/mL); MIC (Escherichia coli ESBL): 6.07 µM (≈ 16 µg/mL); MIC [12]: ≥ 48.5 µM; MIC [13]: 12.1 µM (≈ 32 µg/mL); MIC (Klebsiella pneumoniae): 12.1 µM (≈ 32 µg/mL)

`CC[C@H](C)[C@H](N)C(=O)N[C@@H](Cc1ccccc1)C(=O)NCC(=O)N[C@@H](C)C(=O)N[C@H](C(=O)N[C@@H](Cc1c[nH]c2ccccc12)C(=O)N[C@@H](CCCCN)C(=O)NCC(=O)N[C@H](C(=O)N[C@@H](CO)C(=O)N[C@@H](CO)C(=O)N[C@@H](CC(C)C)C(=O)N[C@@H](CC(C)C)C(=O)O)[C@@H](C)CC)[C@@H](C)CC` [IFGAIWKGISSLL] was tested. Which MIC (Pseudomonas putida) did it give?
Its MIC is ≥ 87 µM.

And the MIC [14]?
Its MIC is ≥ 87 µM.

And the MIC [15]?
The MIC was ≥ 68 µM.

What about the MIC [16] of the same molecule?
The MIC was ≥ 87 µM.

What about the MIC [17] of the same molecule?
The MIC was 18 µM (≈ 25.3 µg/mL).

What about the MIC [18] of the same molecule?
Its MIC is ≥ 48 µM.

What about the MIC [19] of the same molecule?
The MIC was ≥ 48 µM.

What about the MIC [20] of the same molecule?
The MIC was 16 µM (≈ 22.5 µg/mL).

And the MIC [21]?
Its MIC is ≥ 36 µM.

And the MIC [22]?
The MIC was 28 µM (≈ 39.3 µg/mL).

And the MIC (Enterococcus sp. S13)?
Its MIC is ≥ 36 µM.

What does the source list for `CC[C@H](C)[C@H](NC(=O)[C@H](CO)NC(=O)[C@H](CCCCN)NC(=O)[C@H](CC(C)C)NC(=O)[C@H](CCCCN)NC(=O)[C@@H](N)CC(C)C)C(=O)N[C@H](C(=O)N[C@@H](CO)C(=O)N[C@@H](Cc1c[nH]c2ccccc12)C(=O)N[C@@H](C)C(=O)N[C@@H](CCCCN)C(=O)N[C@@H](CCCCN)C(=O)N[C@H](C(=O)N[C@@H](CC(C)C)C(N)=O)C(C)C)C(C)C` [LKLKSIVSWAKKVL]?
MIC (Enterococcus faecalis): 6.63 µM (≈ 10.7 µg/mL); MIC [23]: 3.1 µM (≈ 5 µg/mL); MIC (Enterococcus faecium): ≥ 79.4 µM; MIC (Staphylococcus xylosus): 0.31 µM (≈ 0.5 µg/mL); MIC [24]: 15.5 µM (≈ 25 µg/mL); MIC [25]: 7.75 µM (≈ 12.5 µg/mL); MIC [26]: 9.92 µM (≈ 16 µg/mL); MIC (Citrobacter koseri): 1.75 µM (≈ 2.83 µg/mL); MIC (Shigella sonnei EW-33): 3.87 µM (≈ 6.25 µg/mL); MIC [27]: ≥ 79.4 µM; MIC (Acinetobacter baumannii): 1.05 µM and 1.24 µM; MIC (Botrytis cinerea): 4.96 µM (≈ 8 µg/mL); MIC [28]: ≥ 79.4 µM; MIC [29]: 7.75 µM (≈ 12.5 µg/mL); MIC [30]: 12.5 µM (≈ 20.2 µg/mL); MIC (Staphylococcus aureus): 8.25 µM (≈ 13.3 µg/mL); MIC [31]: 7.01 µM (≈ 11.3 µg/mL); MIC [32]: 1.94 µM (≈ 3.13 µg/mL); MIC [33]: 19.8 µM (≈ 32 µg/mL); MIC (Salmonella enterica): 19.8 µM (≈ 32 µg/mL); MIC [34]: 15.5 µM (≈ 25 µg/mL); MIC [35]: ≥ 39.7 µM; MIC [36]: 1.94 µM (≈ 3.13 µg/mL); MIC (Escherichia coli BL21): 3.51 µM (≈ 5.65 µg/mL); MIC (Escherichia coli JM109): 0.62 µM (≈ 0.999 µg/mL); MIC [37]: 14 µM (≈ 22.6 µg/mL); MIC (Klebsiella pneumoniae): > 15.5 µM; MIC [38]: 31 µM (≈ 50 µg/mL); MIC [39]: 3.87 µM (≈ 6.25 µg/mL); MIC (Shigella flexneri EW-10): 3.87 µM (≈ 6.25 µg/mL)

Reference: DBAASP
